From ChEMBL document CHEMBL1201862, “PubChem BioAssay data set” (2004)
“And” between values parts separate entries of the source, which are not always exact repeats. Identical values can stand only once.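 Results reflect a 48-hour exposure of cells in 96-well plates to compound at five concentrations. GI50 marks 50% less growth.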 The source made the active and inactive calls. Rule as the data show it: active = GI50 up to about 1.1 µM and inactive = higher.

Legend:
Assay in all cases: DTP human tumour cell line panel, 48 h
[1] = system: M14
[2] = system: IGROV-1
[3] = system: K562
[4] = system: OVCAR-5
[5] = system: HT-29
[6] = system: A549
[7] = system: LOX IMVI
[8] = system: SK-MEL-5
[9] = system: LXFL 529
[10] = system: SF-295
[11] = system: COLO 205
[12] = system: HCT-15
[13] = system: SK-OV-3
[14] = system: RXF 393
[15] = system: UACC-257
[16] = system: NCI-H460
[17] = system: SK-MEL-2
[18] = system: SF-268
[19] = system: NCI/ADR-RES
[20] = system: MDA-MB-435

SMILES	GI50 [1]	GI50 [2]	GI50 [3]	GI50 [4]	GI50 [5]	GI50 [6]	GI50 [7]	GI50 [8]	GI50 [9]	GI50 [10]	GI50 [11]	GI50 [12]	GI50 [13]	GI50 [14]	GI50 [15]	GI50 [16]	GI50 [17]	GI50 [18]	GI50 [19]	GI50 [20]
COC(=O)C(C(=O)C(=O)Nc1cccc(O)c1)c1nc2ccc(Cl)cc2nc1O (stereo not given)	> 100 µM (inactive)	> 100 µM (inactive)	> 100 µM (inactive)	> 100 µM (inactive)	> 100 µM (inactive)	> 100 µM (inactive)	> 100 µM (inactive)	> 100 µM (inactive)	> 100 µM (inactive)	> 100 µM (inactive)	> 100 µM (inactive)	> 100 µM	> 100 µM (inactive)	74.3 µM (inactive)	> 100 µM (inactive)	> 100 µM (inactive)	> 100 µM (inactive)	> 100 µM (inactive)	–	–
O=S(=O)(O)C1=C2Sc3ccccc3N=C2c2ccccc2C1	12.7 µM (inactive)	14.3 µM (inactive)	10.5 µM (inactive)	20.2 µM (inactive)	20.3 µM (inactive)	16.2 µM (inactive)	12.4 µM (inactive)	13.2 µM (inactive)	12.2 µM (inactive)	13.8 µM (inactive)	16.5 µM (inactive)	13.6 µM	29.2 µM (inactive)	19.5 µM (inactive)	17.1 µM (inactive)	19.5 µM (inactive)	14.6 µM (inactive)	14.1 µM (inactive)	–	–
COC(=O)C(=O)C(C(=O)C(=O)Nc1cccc(C(C)=O)c1)c1nc2ccccc2nc1O (stereo not given)	> 100 µM (inactive)	> 100 µM (inactive)	> 100 µM (inactive)	> 100 µM (inactive)	> 100 µM (inactive)	> 100 µM (inactive)	> 100 µM (inactive)	> 100 µM (inactive)	> 100 µM (inactive)	> 100 µM (inactive)	> 100 µM (inactive)	> 100 µM	> 100 µM (inactive)	> 100 µM (inactive)	> 100 µM (inactive)	> 100 µM (inactive)	> 100 µM (inactive)	> 100 µM (inactive)	–	–
Oc1cc(-c2ccccn2)nc2ccc(Cl)cc12	36.9 µM (inactive)	64.1 µM (inactive)	12.8 µM (inactive)	> 100 µM (inactive)	33 µM (inactive)	–	30.8 µM (inactive)	–	27.3 µM (inactive)	–	36.6 µM (inactive)	–	36 µM (inactive)	–	31.7 µM (inactive)	38.1 µM (inactive)	–	–	–	–
CC(c1ccccc1)N1CC(C)(c2ccccc2)N(O)C(c2ccccc2)C1C (stereo not given)	–	7.45 µM (inactive)	7.28 µM (inactive)	16.9 µM (inactive)	23.4 µM (inactive)	7.01 µM (inactive)	12.2 µM (inactive)	7.82 µM (inactive)	9.06 µM (inactive)	7.85 µM (inactive)	11.1 µM (inactive)	–	22.8 µM (inactive)	4.41 µM (inactive)	13.5 µM (inactive)	7.29 µM (inactive)	5.42 µM (inactive)	4.15 µM (inactive)	–	–
Cc1cc2c(=O)cc(-c3ccc(C(F)(F)F)cc3)oc2c(C(=O)O)c1C	> 100 µM (inactive)	> 100 µM (inactive)	> 100 µM (inactive)	> 100 µM (inactive)	> 100 µM (inactive)	> 100 µM (inactive)	> 100 µM (inactive)	> 100 µM (inactive)	> 100 µM (inactive)	> 100 µM (inactive)	> 100 µM (inactive)	> 100 µM	> 100 µM (inactive)	> 100 µM (inactive)	> 100 µM (inactive)	> 100 µM (inactive)	> 100 µM (inactive)	> 100 µM (inactive)	–	–
COC(=O)CCC1CCc2c(OC)ccc(OC)c2C1=O (stereo not given)	> 100 µM (inactive)	> 100 µM (inactive)	> 100 µM (inactive)	> 100 µM (inactive)	> 100 µM (inactive)	> 100 µM (inactive)	> 100 µM (inactive)	> 100 µM (inactive)	> 100 µM (inactive)	> 100 µM (inactive)	> 100 µM (inactive)	> 100 µM	> 100 µM (inactive)	> 100 µM (inactive)	> 100 µM (inactive)	> 100 µM (inactive)	> 100 µM (inactive)	> 100 µM (inactive)	–	–
COC(=O)C12C3C4C1C1C2C3C41C(=O)OC(C)(C)C (stereo not given)	> 100 µM (inactive)	> 100 µM (inactive)	> 70.1 µM (inactive)	> 100 µM (inactive)	> 100 µM (inactive)	> 64.3 µM (inactive)	> 42.9 µM (inactive)	> 100 µM (inactive)	> 100 µM (inactive)	> 100 µM (inactive)	> 64 µM (inactive)	> 100 µM	> 100 µM (inactive)	> 100 µM (inactive)	> 100 µM (inactive)	> 63.5 µM (inactive)	> 100 µM (inactive)	> 100 µM (inactive)	–	–
OCC(O)C(OC1OC(CO)C(O)C(O)C1O)c1nn(-c2ccc(Cl)cc2)c2nc3cc(Cl)c(Cl)cc3nc12 (stereo not given)	> 100 µM (inactive)	–	> 100 µM (inactive)	> 100 µM (inactive)	> 100 µM (inactive)	–	> 100 µM (inactive)	–	> 100 µM (inactive)	> 100 µM (inactive)	–	> 100 µM	> 100 µM (inactive)	> 100 µM (inactive)	> 100 µM (inactive)	> 100 µM (inactive)	–	> 100 µM (inactive)	–	–
N#CC12Cc3ccc4c(c3-c3cccc(c31)CCN2C(=O)c1ccccc1)OCO4 (stereo not given)	> 100 µM (inactive)	> 100 µM (inactive)	> 100 µM (inactive)	> 100 µM (inactive)	> 100 µM (inactive)	> 100 µM (inactive)	> 100 µM (inactive)	> 100 µM (inactive)	> 100 µM (inactive)	> 100 µM (inactive)	> 100 µM (inactive)	> 100 µM	> 100 µM (inactive)	> 100 µM (inactive)	> 100 µM (inactive)	–	–	> 100 µM (inactive)	–	–
[N-]=[N+]=NC1C2CC3CC(C2)CC1C3 (stereo not given)	> 100 µM (inactive)	> 100 µM (inactive)	> 100 µM (inactive)	> 100 µM (inactive)	> 100 µM (inactive)	> 100 µM (inactive)	> 100 µM (inactive)	> 100 µM (inactive)	> 100 µM (inactive)	> 100 µM (inactive)	> 100 µM (inactive)	–	> 100 µM (inactive)	–	> 100 µM (inactive)	> 100 µM (inactive)	> 100 µM (inactive)	–	–	–
O=C(Nc1ccc(S(=O)(=O)N[C@@H](C(=O)O)c2ccccc2)cc1)c1ccc(F)cc1	> 100 µM (inactive)	> 100 µM (inactive)	> 100 µM (inactive)	> 100 µM (inactive)	> 100 µM (inactive)	> 100 µM (inactive)	> 100 µM (inactive)	> 100 µM (inactive)	> 100 µM (inactive)	> 100 µM (inactive)	> 100 µM (inactive)	> 100 µM	> 100 µM (inactive)	> 100 µM (inactive)	> 100 µM (inactive)	> 100 µM (inactive)	> 100 µM (inactive)	> 100 µM (inactive)	–	–
O/N=C/c1cc2c(cc1Br)OCO2	> 100 µM (inactive)	> 100 µM (inactive)	> 100 µM (inactive)	> 100 µM (inactive)	> 100 µM (inactive)	> 100 µM (inactive)	> 100 µM (inactive)	> 100 µM (inactive)	> 100 µM (inactive)	> 100 µM (inactive)	> 100 µM (inactive)	> 100 µM	> 100 µM (inactive)	–	> 100 µM (inactive)	> 100 µM (inactive)	> 100 µM (inactive)	–	–	–
CCOC(=O)CCC(NC(=O)c1ccc(Oc2nc3ccc(C(F)(F)F)cc3nc2-c2ccccc2)cc1)C(=O)OCC (stereo not given)	67.6 µM (inactive)	22.7 µM (inactive)	> 100 µM (inactive)	> 68.7 µM (inactive)	5.15 µM (inactive)	24.2 µM (inactive)	28.6 µM (inactive)	45.3 µM (inactive)	–	12.2 µM (inactive)	> 100 µM (inactive)	> 100 µM	15 µM (inactive)	15.7 µM (inactive)	> 64.7 µM (inactive)	47.1 µM (inactive)	22.8 µM (inactive)	6.55 µM (inactive)	15.5 µM (inactive)	> 100 µM (inactive)
CSC1CC2C(CC1(C)O)C2(C)C (stereo not given)	> 100 µM (inactive)	> 100 µM (inactive)	–	> 100 µM (inactive)	> 100 µM (inactive)	> 100 µM (inactive)	95.5 µM (inactive)	> 100 µM (inactive) and 53.8 µM (inactive)	> 100 µM (inactive)	–	> 100 µM (inactive)	> 100 µM	> 100 µM (inactive)	–	–	> 100 µM (inactive)	> 100 µM (inactive)	> 100 µM (inactive)	–	–
CN1CCc2nc(N)nc(-c3nc(N)nc4c3CN(C)CC4)c2C1	> 100 µM (inactive)	> 100 µM (inactive)	75.9 µM (inactive)	> 100 µM (inactive)	> 100 µM (inactive)	> 100 µM (inactive)	> 100 µM (inactive)	> 100 µM (inactive)	–	> 100 µM (inactive)	> 100 µM (inactive)	> 100 µM	> 100 µM (inactive)	> 100 µM (inactive)	> 100 µM (inactive)	> 100 µM (inactive)	> 100 µM (inactive)	> 100 µM (inactive)	> 100 µM (inactive)	> 100 µM (inactive)
